Source: ChEMBL document CHEMBL5465560, “Selectivity Literature for EUbOPEN Chemogenomic Library” (2024)

Assays:
[1] = biological target: T1, NUAK family SNF1-like kinase 2 (Homo sapiens) (UniProt Q9H093); test: Selectivity interaction (KinomeScan (DiscoverX)) EUB0001049a NUAK2; conditions: at 1 µM
T1 sequence (whole entry): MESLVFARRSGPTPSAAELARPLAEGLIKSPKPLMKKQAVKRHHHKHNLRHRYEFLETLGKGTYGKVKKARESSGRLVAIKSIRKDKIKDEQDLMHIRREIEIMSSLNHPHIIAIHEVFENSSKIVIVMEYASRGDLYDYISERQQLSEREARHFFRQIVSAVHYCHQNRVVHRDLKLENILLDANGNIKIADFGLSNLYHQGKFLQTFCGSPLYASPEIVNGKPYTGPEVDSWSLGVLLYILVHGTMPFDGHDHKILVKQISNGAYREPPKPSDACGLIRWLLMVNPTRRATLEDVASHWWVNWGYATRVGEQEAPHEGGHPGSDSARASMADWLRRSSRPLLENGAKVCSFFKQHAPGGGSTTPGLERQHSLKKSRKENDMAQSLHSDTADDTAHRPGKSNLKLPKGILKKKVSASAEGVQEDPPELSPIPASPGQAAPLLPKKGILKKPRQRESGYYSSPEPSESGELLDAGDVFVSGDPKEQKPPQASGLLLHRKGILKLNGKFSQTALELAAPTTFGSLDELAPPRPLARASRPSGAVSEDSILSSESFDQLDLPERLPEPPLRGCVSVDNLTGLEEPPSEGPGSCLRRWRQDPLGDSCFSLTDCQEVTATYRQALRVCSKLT

[2] = biological target: Calcium/calmodulin-dependent protein kinase type II subunit delta (Homo sapiens) (UniProt Q13557); test: Selectivity interaction (KinomeScan (DiscoverX)) EUB0000229b CAMK2D; conditions: at 10 µM
[3] = biological target: T2, Serine/threonine-protein kinase Sgk3 (Homo sapiens) (UniProt Q96BR1); test: Selectivity interaction (ActivX KiNativ screen (kinase selectivity in THP-1 cell lysates)) EUB0000639a SGK3; assay type: subcellular; conditions: lysate, at 0.2 µM
T2 sequence (whole entry): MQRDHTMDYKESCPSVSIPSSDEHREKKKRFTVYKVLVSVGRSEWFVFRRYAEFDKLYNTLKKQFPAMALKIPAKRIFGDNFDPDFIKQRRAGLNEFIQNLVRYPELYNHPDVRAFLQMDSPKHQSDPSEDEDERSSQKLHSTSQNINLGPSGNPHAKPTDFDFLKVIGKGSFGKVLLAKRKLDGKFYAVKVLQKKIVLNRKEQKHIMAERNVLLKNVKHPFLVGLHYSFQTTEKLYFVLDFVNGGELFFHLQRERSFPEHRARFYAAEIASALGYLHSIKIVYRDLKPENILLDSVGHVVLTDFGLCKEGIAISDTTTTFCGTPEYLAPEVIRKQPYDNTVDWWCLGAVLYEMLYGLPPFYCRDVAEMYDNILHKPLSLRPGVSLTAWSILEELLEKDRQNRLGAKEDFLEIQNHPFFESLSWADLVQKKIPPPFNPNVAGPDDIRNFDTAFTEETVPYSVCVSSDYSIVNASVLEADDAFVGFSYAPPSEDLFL

[4] = biological target: T3, Cyclin-dependent kinase-like 5 (Homo sapiens) (UniProt O76039); test: Selectivity interaction (KinomeScan (DiscoverX)) EUB0000595a CDKL5; conditions: at 10 µM
T3 sequence (whole entry): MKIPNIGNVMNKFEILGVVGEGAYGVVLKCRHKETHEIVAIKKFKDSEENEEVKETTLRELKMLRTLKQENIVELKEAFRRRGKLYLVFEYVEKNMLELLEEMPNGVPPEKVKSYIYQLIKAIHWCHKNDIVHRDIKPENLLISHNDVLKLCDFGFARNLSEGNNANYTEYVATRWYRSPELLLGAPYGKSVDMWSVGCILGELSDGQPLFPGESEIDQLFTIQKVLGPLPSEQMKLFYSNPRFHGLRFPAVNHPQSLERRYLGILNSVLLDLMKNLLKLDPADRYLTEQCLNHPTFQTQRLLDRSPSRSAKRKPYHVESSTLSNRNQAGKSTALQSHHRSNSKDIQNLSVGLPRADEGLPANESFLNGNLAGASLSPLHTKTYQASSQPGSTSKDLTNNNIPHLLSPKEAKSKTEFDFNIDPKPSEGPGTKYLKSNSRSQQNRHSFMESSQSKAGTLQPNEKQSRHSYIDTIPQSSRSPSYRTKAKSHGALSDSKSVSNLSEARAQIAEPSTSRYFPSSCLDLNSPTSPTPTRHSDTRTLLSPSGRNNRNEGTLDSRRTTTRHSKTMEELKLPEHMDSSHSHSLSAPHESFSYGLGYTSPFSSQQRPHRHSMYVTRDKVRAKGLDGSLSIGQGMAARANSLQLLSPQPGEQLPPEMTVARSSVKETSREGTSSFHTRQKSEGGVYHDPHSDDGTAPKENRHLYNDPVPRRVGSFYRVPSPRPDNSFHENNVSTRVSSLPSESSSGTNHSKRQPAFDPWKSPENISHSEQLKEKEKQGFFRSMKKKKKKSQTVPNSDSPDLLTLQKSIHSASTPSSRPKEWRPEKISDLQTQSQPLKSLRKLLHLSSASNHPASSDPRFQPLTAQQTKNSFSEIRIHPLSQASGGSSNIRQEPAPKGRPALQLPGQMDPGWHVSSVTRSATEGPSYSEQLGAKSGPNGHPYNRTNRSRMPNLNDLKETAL

[5] = biological target: T4, Mitogen-activated protein kinase kinase kinase 7 (Homo sapiens) (UniProt O43318); test: Selectivity interaction (KinomeScan (DiscoverX)) EUB0000655a MAP3K7; conditions: at 10 µM
T4 sequence (whole entry): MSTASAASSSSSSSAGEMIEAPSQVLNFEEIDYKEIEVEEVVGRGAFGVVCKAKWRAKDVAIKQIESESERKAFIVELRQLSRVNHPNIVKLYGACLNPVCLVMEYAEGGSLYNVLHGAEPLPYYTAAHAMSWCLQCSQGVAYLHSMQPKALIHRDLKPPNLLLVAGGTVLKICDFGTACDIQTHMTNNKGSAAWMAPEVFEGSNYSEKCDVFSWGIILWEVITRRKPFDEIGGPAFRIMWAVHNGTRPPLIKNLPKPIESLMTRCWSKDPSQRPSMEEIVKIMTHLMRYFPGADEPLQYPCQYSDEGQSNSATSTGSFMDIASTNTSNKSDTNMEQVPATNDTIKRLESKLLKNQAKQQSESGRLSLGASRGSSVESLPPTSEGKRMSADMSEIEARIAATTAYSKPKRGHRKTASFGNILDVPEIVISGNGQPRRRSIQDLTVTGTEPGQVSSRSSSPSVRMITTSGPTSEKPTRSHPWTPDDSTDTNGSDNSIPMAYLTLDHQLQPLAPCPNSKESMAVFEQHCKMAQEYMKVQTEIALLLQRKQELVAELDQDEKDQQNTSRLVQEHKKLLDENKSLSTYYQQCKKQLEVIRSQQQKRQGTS

[6] = biological target: Serine/threonine-protein kinase 32A (Homo sapiens) (UniProt Q8WU08); test: Selectivity interaction (KinomeScan (DiscoverX)) EUB0000655a STK32A; conditions: at 10 µM
Chain of Serine/threonine-protein kinase 32A (Homo sapiens) (Q8WU08 whole entry): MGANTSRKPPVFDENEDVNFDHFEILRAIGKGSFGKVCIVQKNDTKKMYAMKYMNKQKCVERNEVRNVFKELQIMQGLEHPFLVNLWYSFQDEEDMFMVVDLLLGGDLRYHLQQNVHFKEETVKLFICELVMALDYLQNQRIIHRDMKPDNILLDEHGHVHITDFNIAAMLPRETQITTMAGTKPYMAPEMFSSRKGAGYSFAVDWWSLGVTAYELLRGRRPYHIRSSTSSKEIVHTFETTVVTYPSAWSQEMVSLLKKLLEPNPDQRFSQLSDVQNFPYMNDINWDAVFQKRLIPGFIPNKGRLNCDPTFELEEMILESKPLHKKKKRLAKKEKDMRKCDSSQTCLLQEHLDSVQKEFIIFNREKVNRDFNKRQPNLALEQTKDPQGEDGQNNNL

Chain of Calcium/calmodulin-dependent protein kinase type II subunit delta (Homo sapiens) (Q13557 whole entry): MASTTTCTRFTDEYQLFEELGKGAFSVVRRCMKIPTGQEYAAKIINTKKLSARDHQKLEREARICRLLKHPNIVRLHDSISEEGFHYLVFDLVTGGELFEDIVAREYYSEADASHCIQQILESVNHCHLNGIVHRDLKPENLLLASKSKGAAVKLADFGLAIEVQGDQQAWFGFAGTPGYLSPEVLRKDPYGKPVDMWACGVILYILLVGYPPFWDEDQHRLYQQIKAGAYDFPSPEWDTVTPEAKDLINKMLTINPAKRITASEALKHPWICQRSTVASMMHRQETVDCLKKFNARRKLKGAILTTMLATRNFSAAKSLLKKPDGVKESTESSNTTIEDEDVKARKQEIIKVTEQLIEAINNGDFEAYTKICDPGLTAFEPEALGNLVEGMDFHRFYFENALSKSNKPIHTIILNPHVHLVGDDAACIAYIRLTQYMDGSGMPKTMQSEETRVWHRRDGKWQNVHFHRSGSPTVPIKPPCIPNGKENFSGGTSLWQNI

COc1cc(Nc2nc(C)cc(-c3cnn4nc(OC)ccc34)n2)cc(C(F)(F)F)c1
% of control [1]: 93%

COc1cc(N(C)c2ccnc3ccc(C(F)(F)F)cc23)cc(OC)c1OC
% binding [2]: 95%

CC[C@@H]1[C@H](F)C(=O)N[C@@H]1COc1nccc2cc(C(N)=O)c(OC)cc12 [ZIMLOVISERTIB]
% of inhibition [3]: -5.7%

COCC(=O)NC/C=C/c1ccc2ncnc(Nc3ccc(Oc4ccc(C)nc4)c(C)c3)c2c1 [CP-724714]
% of control [4]: 100%

CN(C)CCOc1ccc(-c2nc(-c3ccncc3)c(-c3ccc4c(c3)CC/C4=N\O)[nH]2)cc1
% of control [5]: 89%
% of control [6]: 85%
